Assay results published in ChEMBL document CHEMBL3997788, “Virtual screening and experimental validation identify novel modulators of nuclear receptor RXRα from Drugbank database” (Bioorg Med Chem Lett, 2017).
Calls of active or inactive are those of the source. The calls are words filed in the database; no cut-off is given here.

Assays:
[1] = target: T1, Retinoic acid receptor RXR-alpha (Homo sapiens, UniProt P19793); assay: Binding affinity to RXRalpha-LBD (unknown origin) measured up to 120 sec by surface plasma resonance method
T1 sequence (P19793 whole entry): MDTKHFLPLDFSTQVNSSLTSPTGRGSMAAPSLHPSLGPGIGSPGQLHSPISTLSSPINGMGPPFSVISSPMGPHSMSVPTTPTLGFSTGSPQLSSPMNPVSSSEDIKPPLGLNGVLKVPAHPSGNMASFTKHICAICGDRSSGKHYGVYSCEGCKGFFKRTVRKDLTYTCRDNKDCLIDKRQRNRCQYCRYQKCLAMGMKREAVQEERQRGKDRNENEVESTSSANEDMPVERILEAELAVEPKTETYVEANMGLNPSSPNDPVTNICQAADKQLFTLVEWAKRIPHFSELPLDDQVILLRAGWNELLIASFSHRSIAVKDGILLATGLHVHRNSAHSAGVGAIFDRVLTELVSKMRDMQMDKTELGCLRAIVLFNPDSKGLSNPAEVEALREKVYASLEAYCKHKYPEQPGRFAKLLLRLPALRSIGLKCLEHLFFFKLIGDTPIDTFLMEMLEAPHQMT

[2] = target: T2, Retinoic acid receptor RXR-alpha (Homo sapiens) (UniProt P19793); assay: Antagonist activity at Myc-tagged RXRalpha (unknown origin) expressed in human MCF-7 cells assessed as inhibition of 9-cis-RA induced receptor transactivation at 10 uM after 24 hrs by luciferase reporter gene assay; format: cell-based
T2 sequence (whole entry): T1 sequence (P19793 whole entry)

[3] = target: T2, Retinoic acid receptor RXR-alpha (Homo sapiens); assay: Agonist activity at Myc-tagged RXRalpha (unknown origin) expressed in human MCF-7 cells assessed as increase in 9-cis-RA induced receptor transactivation at 1 uM after 24 hrs by luciferase reporter gene assay; format: cell-based
[4] = target: T2, Retinoic acid receptor RXR-alpha (Homo sapiens); assay: Agonist activity at Myc-tagged RXRalpha (unknown origin) expressed in human MCF-7 cells assessed as increase in 9-cis-RA induced receptor transactivation at 5 to 10 uM after 24 hrs by luciferase reporter gene assay; format: cell-based
[5] = target: T2, Retinoic acid receptor RXR-alpha (Homo sapiens); assay: Agonist activity at Myc-tagged RXRalpha (unknown origin) expressed in human MCF-7 cells assessed as receptor transactivation at 10 uM after 24 hrs by luciferase reporter gene assay; format: cell-based
[6] = target: T2, Retinoic acid receptor RXR-alpha (Homo sapiens); assay: Antagonist activity at Myc-tagged RXRalpha (unknown origin) expressed in human MCF-7 cells assessed as inhibition of 9-cis-RA induced receptor transactivation after 24 hrs by luciferase reporter gene assay; format: cell-based
[7] = target: T2, Retinoic acid receptor RXR-alpha (Homo sapiens); assay: Antagonist activity at Myc-tagged RXRalpha (unknown origin) expressed in human MCF-7 cells assessed as inhibition of 9-cis-RA induced receptor transactivation at 1 uM after 24 hrs by luciferase reporter gene assay; format: cell-based
[8] = target: T2, Retinoic acid receptor RXR-alpha (Homo sapiens); assay: Antagonist activity at Myc-tagged RXRalpha (unknown origin) expressed in human MCF-7 cells assessed as inhibition of 9-cis-RA induced receptor transactivation at 100 nM after 24 hrs by luciferase reporter gene assay; format: cell-based

SMILES | Kd [1] | inhibition [2] | other results
O=C1C=CCC(/C=C/c2c(C3CC3)nc3ccccc3c2-c2ccc(F)cc2)O1 (stereo not drawn) | 138 µM | inactive | 
O=c1[nH]c2ccccc2n1CCCN1CCC(n2c(=O)[nH]c3cc(Cl)ccc32)CC1 [DOMPERIDONE] | 8.8 µM |  | Activity [3]: inactive; Activity [4]: Active; Activity [5]: inactive
CC1=C(C)C(=O)C(C(CCCCCC(=O)O)c2ccccc2)=C(C)C1=O (stereo not drawn) |  | Active | 
CC[C@H](C)C(=O)O[C@H]1C[C@@H](O)C=C2C=C[C@H](C)[C@H](CC[C@@H](O)C[C@@H](O)CC(=O)O)[C@H]21 |  | inactive | 
O=C1CCc2cc(OCCCCc3nnnn3C3CCCCC3)ccc2N1 |  | Active | 
Clc1ccc(CCC(Cn2ccnc2)Sc2c(Cl)cccc2Cl)cc1 (stereo not drawn) |  | Active | 
CC(C)n1c(/C=C/C(O)CC(O)CC(=O)O)c(-c2ccc(F)cc2)c2ccccc21 (stereo not drawn) [FLUVASTATIN] | 11 µM | Active | inhibition [6]: Dose-dependent effect
O=C(O)C[C@H](O)C[C@H](O)/C=C/c1c(C2CC2)nc2ccccc2c1-c1ccc(F)cc1 [PITAVASTATIN CALCIUM] | 13.3 µM | Active | inhibition [7]: Active
O=C(O)/C=C/C=C/C=C/c1c(C2CC2)nc2ccccc2c1-c1ccc(F)cc1 | 5.12 µM |  | inhibition [8]: Active
CC(C)c1nc(N(C)S(C)(=O)=O)nc(-c2ccc(F)cc2)c1/C=C/[C@@H](O)C[C@@H](O)CC(=O)O |  | Active | 
CN(CCOc1ccc(CC2SC(=O)NC2=O)cc1)c1ccccn1 (stereo not drawn) |  |  | Activity [3]: inactive; Activity [4]: Active; Activity [5]: inactive
O=C1[C@H](CC[C@H](O)c2ccc(F)cc2)[C@@H](c2ccc(O)cc2)N1c1ccc(F)cc1 |  | Active | 
